The target of one test is T1, 5-HT1A receptor (Bos taurus, UniProt F6Q2H9).
T1 construct: 5-HT1A receptors in calf hippocampus membranes; from tissue; host or cells: calf hippocampus membranes
T1 sequence (F6Q2H9 1-422): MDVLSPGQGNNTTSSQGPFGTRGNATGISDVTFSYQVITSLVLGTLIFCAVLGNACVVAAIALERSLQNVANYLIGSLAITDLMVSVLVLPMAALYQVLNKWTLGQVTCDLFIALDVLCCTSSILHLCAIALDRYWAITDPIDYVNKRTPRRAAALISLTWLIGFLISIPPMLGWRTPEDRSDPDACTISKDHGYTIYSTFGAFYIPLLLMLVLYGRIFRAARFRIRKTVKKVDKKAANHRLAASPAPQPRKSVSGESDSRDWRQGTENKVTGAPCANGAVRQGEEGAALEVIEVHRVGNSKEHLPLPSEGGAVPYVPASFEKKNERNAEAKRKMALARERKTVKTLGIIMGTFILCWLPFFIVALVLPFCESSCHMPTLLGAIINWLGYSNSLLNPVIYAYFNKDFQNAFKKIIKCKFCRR
In words: Affinity for the 5-HT1A receptor, binding of 3H-ipsapirone in calf hippocampus membranes. Here is the method: Affinity for the 5-HT1A receptor
[W. U. Dompert et al., Naunyn-Schmiedeberg's Arch. Pharmacol. (1985), 328, 467-470].
In this test, the binding of ^3 H-ipsapirone to 5-HT1A receptors in calf hippocampus membranes is measured.

A further test concerns the target 5-HT1 receptor. The test is described as follows: Affinity for the 5-HT1 receptor, receptor binding studies with 3H-serotonin on calf hippocampus membrane preparations. From the text: Affinity for the 5-HT1 receptor
In Table 1, the high affinity of the compounds according to the invention for 5-hydroxytryptamine receptors of the subtype 1 is represented by way of example. The values given are data which have been determined from receptor binding studies using calf hippocampus membrane preparations. The radioactively labelled ligand used for this was ^3 H-serotonin.

The next test addresses T2, dopamine D2 receptor (Rattus norvegicus, UniProt P61169).
T2 construct: membranes from the striatum of the rat; from tissue; host or cells: rat striatum membranes
In words: Dopamine D2 receptor test, binding of 3H-sulpiride on membranes from the striatum of the rat. The note with it: Ki calculated from IC50 of displacement curves. As to the method:
Dopamine D2 receptor test
This test is carried out according to the following reference: Imafuku J. (1987), Brain Research 402; 331-338.
In this test, the binding of the selective D2 -receptor antagonist ^3 H-sulpiride on membranes from the striatum of the rat is measured. Compounds which bind to dopamine D2 -receptors inhibit the binding of ^3 H-sulpiride in a concentration-dependent manner. IC50 values are determined from the displacement curves and the inhibition constants Ki are calculated from these.

The values below come from patent publication US6060482A, “Triazaspirodecanone-methylchromans” (Bayer Aktiengesellschaft, priority 1991, dated 2000).

Where a name gives a salt, the structure may show the parent alone.

T2 sequence (P61169 whole entry): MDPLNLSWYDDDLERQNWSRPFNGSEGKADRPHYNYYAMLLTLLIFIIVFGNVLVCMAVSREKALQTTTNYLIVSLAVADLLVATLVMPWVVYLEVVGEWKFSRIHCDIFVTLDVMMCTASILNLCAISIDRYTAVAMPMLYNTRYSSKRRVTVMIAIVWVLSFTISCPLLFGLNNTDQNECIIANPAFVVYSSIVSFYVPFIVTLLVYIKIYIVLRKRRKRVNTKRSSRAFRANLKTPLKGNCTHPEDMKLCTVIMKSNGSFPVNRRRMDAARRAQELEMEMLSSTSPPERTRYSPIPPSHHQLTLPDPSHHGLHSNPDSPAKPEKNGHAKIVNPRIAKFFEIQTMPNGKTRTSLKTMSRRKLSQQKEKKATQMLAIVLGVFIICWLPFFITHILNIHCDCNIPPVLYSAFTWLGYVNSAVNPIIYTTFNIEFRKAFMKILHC

The Ki is the equilibrium dissociation constant of an inhibitor or competing ligand from its target. As for `COc1cccc2c1OC(CN1CCC3(CC1)C(=O)NCN3c1ccccc1)CC2` (centres unmarked) [Example 6], the Ki on 5-HT1A receptor was 1 nM.

On to `O=C1NCN(c2ccccc2)C12CCN(C[C@H]1CCc3ccccc3O1)CC2` [Example 4], for which, at 5-HT1 receptor, the Ki was determined as 1 nM.

In the case of `O=C1NCN(c2ccccc2)C12CCN(C[C@@H]1CCc3ccccc3O1)CC2` [Example 3], on dopamine D2 receptor, the Ki is 0.6 nM.

`COc1cccc2c1OC(CN1CCC3(CC1)C(=O)NCN3c1ccccc1)CC2` (centres unmarked) [Example 2]: the Ki on dopamine D2 receptor is 0.3 nM; at 5-HT1 receptor, 1.5 nM.

`O=C1NCN(c2ccccc2)C12CCN(CC1CCc3ccccc3O1)CC2` (centres unmarked) [Example 5, 8-(Chroman-2-yl-methyl)-1-phenyl-1,3,8-triazaspiro[4.5]-decan-4-one HCl salt]: the affinity on 5-HT1A receptor, expressed as Ki, was 1 nM.

`O=C1NCN(c2ccccc2)C12CCN(CC1CCc3ccccc3O1)CC2` (centres unmarked) [Example 1, 8-(Chroman-2-yl-methyl)-1-phenyl-1,3,8-triazaspiro[4.5]-decan-4-one]: the results for the Ki on dopamine D2 receptor and on 5-HT1 receptor were 0.2 nM and 2 nM, respectively.
